The values that follow come from US12139520B2 (priority 2020, dated 2024).

Bridge positions count the residues as written; N and C are the ends. Square brackets hold non-standard residues; d marks the D form. Peptide text beside a SMILES is read from it. Hyp = O=C(O)[C@@H]1C[C@@H](O)CN1

Series [1] has as its target hAM1 receptor (Homo sapiens, UniProt O60895+Q16602). Kind of series: cAMP assay for in vitro receptor activation, hAM1-R. It is filed as cell-based. The following applies: cAMP assay, hAM1 receptor; read-out: hAM1R EC50. The gist of the method: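 cAMP accumulation was measured in a monoclonal cell line stably overexpressing the hAM1 receptor. Frozen aliquots were thawed and plated at 8000 cells/well in DPBS containing 0.05% casein and 0.5 mM IBMX.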
For orientation: Changes in cAMP serve as a functional read-out for many G protein-coupled receptors.

A short description of series [2]: Physical stability of peptide analogues (Thioflavin T fibrillation). It is filed as physicochemical. The conditions noted are these: maximum ThT signal normalized between hAMY maximum and buffer background; 40° C., shaking, four days; pH 7 per table title. An outline of the steps: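 1 h in 50 mM NaOAc pH 4 / 50 mM NaPi pH 7; + ThT 4 μM final; 40 °C, 700 rpm linear shake 5 min pre-read; ex 450, em 480 nm q10 min × 4 d; LOESS smoothing; max signal normalised to hAMY max vs buffer blank.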

For series [3], the target named is T1, hAMY3 receptor (Homo sapiens, UniProt O60896+P30988).
T1 sequence (P30988 25-474): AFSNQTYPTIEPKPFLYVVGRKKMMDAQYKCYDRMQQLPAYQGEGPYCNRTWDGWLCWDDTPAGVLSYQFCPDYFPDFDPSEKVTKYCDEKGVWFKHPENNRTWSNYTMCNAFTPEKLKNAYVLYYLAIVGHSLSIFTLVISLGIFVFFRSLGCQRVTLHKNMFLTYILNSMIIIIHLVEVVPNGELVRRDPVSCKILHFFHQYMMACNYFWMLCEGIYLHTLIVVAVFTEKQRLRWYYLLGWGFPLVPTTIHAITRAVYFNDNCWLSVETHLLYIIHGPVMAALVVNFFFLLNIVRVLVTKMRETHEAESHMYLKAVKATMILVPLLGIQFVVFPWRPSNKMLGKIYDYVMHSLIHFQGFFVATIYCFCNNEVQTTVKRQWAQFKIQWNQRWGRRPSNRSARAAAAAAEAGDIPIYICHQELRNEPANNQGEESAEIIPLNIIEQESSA
T1 sequence (O60896 24-148 partner): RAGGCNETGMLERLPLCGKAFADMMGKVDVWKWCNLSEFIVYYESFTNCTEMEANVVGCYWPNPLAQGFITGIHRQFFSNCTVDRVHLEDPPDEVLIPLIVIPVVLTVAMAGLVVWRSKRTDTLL
The series can be described thus: cAMP assay for in vitro receptor activation, hAMY3-R. It is filed as cell-based. The conditions noted are these: cAMP assay, hAMY3 receptor; read-out: hAMY3R EC50. An outline of the steps: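 Monoclonal cell line stably overexpressing human AMY3 receptor, 2000 cells/well in DPBS with 0.05% casein and 0.5 mM IBMX. Stimulated 30 min at room temperature with graded compound doses, human amylin as positive control. cAMP accumulation read by TR-FRET after one hour.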

Chain of hAM1 receptor (Q16602 23-461): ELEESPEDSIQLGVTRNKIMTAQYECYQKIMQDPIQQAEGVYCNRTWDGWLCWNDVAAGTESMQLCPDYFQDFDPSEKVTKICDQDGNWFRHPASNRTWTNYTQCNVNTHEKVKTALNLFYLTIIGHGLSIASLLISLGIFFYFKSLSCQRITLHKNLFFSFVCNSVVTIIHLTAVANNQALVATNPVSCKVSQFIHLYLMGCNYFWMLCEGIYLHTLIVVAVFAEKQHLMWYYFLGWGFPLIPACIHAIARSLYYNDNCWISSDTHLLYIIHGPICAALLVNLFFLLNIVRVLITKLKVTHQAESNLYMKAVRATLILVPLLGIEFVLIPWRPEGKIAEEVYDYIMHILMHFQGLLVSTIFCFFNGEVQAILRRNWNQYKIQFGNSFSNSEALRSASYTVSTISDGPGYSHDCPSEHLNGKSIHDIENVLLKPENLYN
Chain of hAM1 receptor (O60895 43-175 partner): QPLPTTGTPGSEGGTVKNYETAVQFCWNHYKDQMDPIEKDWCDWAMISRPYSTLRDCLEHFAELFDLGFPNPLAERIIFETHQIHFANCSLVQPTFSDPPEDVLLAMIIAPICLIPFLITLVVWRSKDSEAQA

Take `CC[C@H](C)[C@H](NC(=O)[C@H](CCC(N)=O)NC(=O)[C@H](Cc1c[nH]cn1)NC(=O)[C@H](C)NC(=O)[C@H](CC(C)C)NC(=O)[C@H](CCCNC(=N)N)NC(=O)[C@H](CCC(N)=O)NC(=O)[C@@H](NC(=O)[C@@H](NC(=O)[C@@H]1CSSC[C@H](NC(=O)CN)C(=O)N[C@@H](CCCNC(=N)N)C(=O)N[C@@H](Cc2ccccc2)C(=O)NCC(=O)N[C@@H]([C@@H](C)O)C(=O)N1)[C@@H](C)O)C(C)C)C(=O)N[C@@H](Cc1ccc(O)cc1)C(=O)N[C@@H](CCC(N)=O)C(=O)N[C@@H](Cc1ccccc1)C(=O)N[C@H](C(=O)N[C@@H](CC(=O)O)C(=O)N[C@@H](CCCCN)C(=O)N[C@@H](Cc1ccccc1)C(=O)N[C@@H](CCCCN)C(=O)N[C@@H](CC(=O)O)C(=O)N[C@@H](CC(N)=O)C(=O)N[C@H](C(=O)N[C@@H](C)C(=O)N1CCC[C@H]1C(=O)N[C@@H](CCCNC(=N)N)C(=O)N[C@@H](CO)C(=O)N[C@@H](CCCCN)C(=O)N[C@H](C(=O)N[C@@H](CO)C(=O)N1CCC[C@H]1C(=O)N[C@@H](CCC(N)=O)C(=O)N[C@H](C(=O)N1C[C@H](O)C[C@H]1C(N)=O)[C@@H](C)O)[C@@H](C)CC)C(C)C)[C@@H](C)O` [compound 212] (H-GCRFGTCTVQRLAHQIYQFTDKFKDNVAPRSKISPQT[Hyp]-NH2; disulfide 2-7; N-terminus assumed): the results for the EC50 in series [1] and in series [3] were more than 5000 nM and 0.153 nM, respectively. The “Max ThT signal (%)” value in series [2] was determined as 1.900%.

For the compound `CC[C@H](C)[C@H](NC(=O)[C@H](CCC(N)=O)NC(=O)[C@H](Cc1c[nH]cn1)NC(=O)[C@H](C)NC(=O)[C@H](CC(C)C)NC(=O)[C@H](CCCNC(=N)N)NC(=O)[C@H](CCC(N)=O)NC(=O)[C@@H](NC(=O)[C@@H](NC(=O)[C@@H]1CSSC[C@H](NC(=O)CN)C(=O)N[C@@H](CCCNC(=N)N)C(=O)N[C@@H]([C@@H](C)O)C(=O)NCC(=O)N[C@@H]([C@@H](C)O)C(=O)N1)[C@@H](C)O)C(C)C)C(=O)N[C@@H](Cc1c[nH]c2ccccc12)C(=O)N[C@@H](CCC(N)=O)C(=O)N[C@@H](Cc1ccccc1)C(=O)N[C@H](C(=O)N[C@@H](CC(=O)O)C(=O)N[C@@H](CCCCN)C(=O)N[C@@H](Cc1ccccc1)C(=O)N[C@@H](CCCCN)C(=O)N[C@@H](CC(=O)O)C(=O)N[C@@H](CC(N)=O)C(=O)N[C@H](C(=O)N[C@@H](C)C(=O)N1CCC[C@H]1C(=O)N[C@@H](CCCNC(=N)N)C(=O)N[C@@H](CO)C(=O)N[C@@H](CCCCN)C(=O)N[C@H](C(=O)N[C@@H](CO)C(=O)N1CCC[C@H]1C(=O)N[C@@H](CCC(N)=O)C(=O)N[C@H](C(=O)N1C[C@H](O)C[C@H]1C(N)=O)[C@@H](C)O)[C@@H](C)CC)C(C)C)[C@@H](C)O` [compound 213] (H-GCRTGTCTVQRLAHQIWQFTDKFKDNVAPRSKISPQT[Hyp]-NH2; disulfide 2-7), the figures for the concentration for a half-maximal effect (EC50) in series [1] and in series [3] were more than 5000 nM and 0.153 nM, respectively. Further, the “Max ThT signal (%)” value in series [2] was 6.500%.

With `CC[C@H](C)[C@H](NC(=O)[C@H](CCC(N)=O)NC(=O)[C@H](Cc1c[nH]cn1)NC(=O)[C@H](C)NC(=O)[C@H](CC(C)C)NC(=O)[C@H](CCCNC(=N)N)NC(=O)[C@H](CCC(N)=O)NC(=O)[C@@H](NC(=O)[C@@H](NC(=O)[C@@H]1CSSC[C@H](NC(=O)CN)C(=O)N[C@@H](CCCNC(=N)N)C(=O)N[C@@H](CCSC)C(=O)NCC(=O)N[C@@H]([C@@H](C)O)C(=O)N1)[C@@H](C)O)C(C)C)C(=O)N[C@@H](Cc1ccc(O)cc1)C(=O)N[C@@H](CCC(N)=O)C(=O)N[C@@H](Cc1ccccc1)C(=O)N[C@H](C(=O)N[C@@H](CC(=O)O)C(=O)N[C@@H](CCCCN)C(=O)N[C@@H](CC(=O)O)C(=O)N[C@@H](CCCCN)C(=O)N[C@@H](CC(=O)O)C(=O)N[C@@H](CC(N)=O)C(=O)N[C@H](C(=O)N[C@@H](C)C(=O)N1CCC[C@H]1C(=O)N[C@@H](CO)C(=O)N[C@@H](CO)C(=O)N[C@@H](CCCCN)C(=O)N[C@H](C(=O)N[C@@H](CO)C(=O)N1CCC[C@H]1C(=O)N[C@@H](CCC(N)=O)C(=O)N[C@H](C(=O)N1C[C@H](O)C[C@H]1C(N)=O)[C@@H](C)O)[C@@H](C)CC)C(C)C)[C@@H](C)O` [compound 222] (H-GCRMGTCTVQRLAHQIYQFTDKDKDNVAPSSKISPQT[Hyp]-NH2; disulfide 2-7; N-terminus assumed), the concentration giving a half-maximal response (EC50) in series [1] is more than 5000 nM; in series [3], 0.184 nM. The “Max ThT signal (%)” value in series [2] was 11.700%.

`CC[C@H](C)[C@H](NC(=O)[C@H](CCC(N)=O)NC(=O)[C@H](Cc1c[nH]cn1)NC(=O)[C@H](C)NC(=O)[C@H](CC(C)C)NC(=O)[C@H](CCCNC(=N)N)NC(=O)[C@H](CCC(N)=O)NC(=O)[C@@H](NC(=O)[C@@H](NC(=O)[C@@H]1CSSC[C@H](NC(=O)CN)C(=O)N[C@@H](CCCNC(=N)N)C(=O)N[C@@H]([C@@H](C)O)C(=O)NCC(=O)N[C@@H]([C@@H](C)O)C(=O)N1)[C@@H](C)O)C(C)C)C(=O)N[C@@H](Cc1ccc(O)cc1)C(=O)N[C@@H](CCC(N)=O)C(=O)N[C@@H](Cc1ccccc1)C(=O)N[C@H](C(=O)N[C@@H](CC(N)=O)C(=O)N[C@@H](CCCCN)C(=O)N[C@@H](CC(=O)O)C(=O)N[C@@H](CCCCN)C(=O)N[C@@H](CC(=O)O)C(=O)N[C@@H](CC(N)=O)C(=O)N[C@H](C(=O)N[C@@H](C)C(=O)N1CCC[C@H]1C(=O)N[C@@H](CCCNC(=N)N)C(=O)N[C@@H](CO)C(=O)N[C@@H](CCCCN)C(=O)N[C@H](C(=O)N[C@@H](CO)C(=O)N1CCC[C@H]1C(=O)N[C@@H](CCC(N)=O)C(=O)N[C@H](C(=O)N[C@@H](Cc1c[nH]c2ccccc12)C(N)=O)[C@@H](C)O)[C@@H](C)CC)C(C)C)[C@@H](C)O` [compound 226] (H-GCRTGTCTVQRLAHQIYQFTNKDKDNVAPRSKISPQTW-NH2; disulfide 2-7; N-terminus assumed): the figures for the EC50 in series [1] and in series [3] were more than 5000 nM and 0.186 nM, respectively. The “Max ThT signal (%)” value in series [2] is recorded as 27.000%.

In the case of `CC[C@H](C)[C@H](NC(=O)[C@H](CCC(N)=O)NC(=O)[C@H](Cc1c[nH]cn1)NC(=O)[C@H](C)NC(=O)[C@H](CC(C)C)NC(=O)[C@H](CCCNC(=N)N)NC(=O)[C@H](CCC(N)=O)NC(=O)[C@@H](NC(=O)[C@@H](NC(=O)[C@@H]1CSSC[C@H](NC(=O)CN)C(=O)N[C@@H](CCCNC(=N)N)C(=O)N[C@@H]([C@@H](C)O)C(=O)NCC(=O)N[C@@H]([C@@H](C)O)C(=O)N1)[C@@H](C)O)C(C)C)C(=O)N[C@@H](Cc1ccc(O)cc1)C(=O)N[C@@H](CCC(N)=O)C(=O)N[C@@H](Cc1ccccc1)C(=O)N[C@H](C(=O)N[C@@H](CC(N)=O)C(=O)N[C@@H](CCCCN)C(=O)N[C@@H](CC(=O)O)C(=O)N[C@@H](CCCCN)C(=O)N[C@@H](CC(=O)O)C(=O)N[C@@H](CC(N)=O)C(=O)N[C@H](C(=O)N[C@@H](C)C(=O)N1CCC[C@H]1C(=O)N[C@@H](CCCNC(=N)N)C(=O)N[C@@H](CO)C(=O)N[C@@H](CCCCN)C(=O)N[C@H](C(=O)N[C@@H](CO)C(=O)N1CCC[C@H]1C(=O)N[C@@H](CCC(N)=O)C(=O)N[C@H](C(=O)N[C@@H](CCSC)C(N)=O)[C@@H](C)O)[C@@H](C)CC)C(C)C)[C@@H](C)O` [compound 237] (H-GCRTGTCTVQRLAHQIYQFTNKDKDNVAPRSKISPQTM-NH2; disulfide 2-7), the EC50 was determined as 4250 nM in series [1] and 0.235 nM in series [3]. Further, the “Max ThT signal (%)” value in series [2] stood at 0.300%.

Usually EC50 stands for the concentration that produces a half-maximal response.
